Several values for one entry are separate records, joined by “and”; a condition that tells them apart may be missing. Identical values can stand only once.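 Compound exposure: 48 hours, 5 concentrations, 96-well plates. The concentration for 50% growth inhibition is given as GI50. At the TGI there is no net growth.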
Experiments:
Experiment in all cases: NCI-60 cell line screen, 48 h
RPMI-8226 leukemia = tested on: RPMI-8226 leukemia
SNB-19 CNS = tested on: SNB-19 CNS
SNB-75 CNS = tested on: SNB-75 CNS
SF-268 CNS = tested on: SF-268 CNS
SF-539 CNS = tested on: SF-539 CNS
CAKI-1 renal = tested on: CAKI-1 renal
HT29 colon = tested on: HT29 colon
LOX IMVI melanoma = tested on: LOX IMVI melanoma
HL-60(TB) leukemia = tested on: HL-60(TB) leukemia
HCT-116 colon = tested on: HCT-116 colon

`COc1cc(/C=C2\C(=O)N(Cc3ccc(Cl)cc3)c3ccccc32)cc(OC)c1OC` was tested, and the GI50 (RPMI-8226 leukemia) was 0.645 µM, the TGI (RPMI-8226 leukemia) was 2.39 µM and the GI50 (SNB-19 CNS) was 4.78 µM. The TGI (SNB-19 CNS) was 18 µM, the GI50 (SNB-75 CNS) was 5.31 µM and the TGI (SNB-75 CNS) was over 100 µM. For the same compound, the GI50 (SF-268 CNS) was 2.76 µM, the TGI (SF-268 CNS) was 13.7 µM and the GI50 (SF-539 CNS) was 4.95 µM. For the same compound, the TGI (SF-539 CNS) was 11.1 µM, the GI50 (CAKI-1 renal) was 2.92 µM and the TGI (CAKI-1 renal) was 13.8 µM. For the same compound, the GI50 (HT29 colon) was 3.27 µM, the TGI (HT29 colon) was over 30.5 µM and the GI50 (LOX IMVI melanoma) was 1.59 µM. The TGI (LOX IMVI melanoma) was 3 µM, the GI50 (HL-60(TB) leukemia) was 1.94 µM and the TGI (HL-60(TB) leukemia) was 5.44 µM. The GI50 (HCT-116 colon) was 1.68 µM and the TGI (HCT-116 colon) was 3.19 µM.
`O=C(Nc1ccc(Oc2ccc3nc(NC(=O)c4ccco4)[nH]c3c2)cc1)Nc1cc(C(F)(F)F)ccc1F` gave a GI50 (RPMI-8226 leukemia) of 2.17 µM, a TGI (RPMI-8226 leukemia) of 10.6 µM and a GI50 (SNB-19 CNS) of 6.95 µM. It also gave a TGI (SNB-19 CNS) of over 25 µM, a GI50 (SNB-75 CNS) of 2.39 µM and a TGI (SNB-75 CNS) of 10.2 µM. For the same compound, the GI50 (SF-268 CNS) was 2.55 µM, the TGI (SF-268 CNS) was 14.1 µM and the GI50 (SF-539 CNS) was 0.943 µM. It also gave a TGI (SF-539 CNS) of 5.69 µM, a GI50 (CAKI-1 renal) of 1.81 µM and a TGI (CAKI-1 renal) of over 14.4 µM. For the same compound, the GI50 (HT29 colon) was 1.18 µM, the TGI (HT29 colon) was 6.09 µM and the GI50 (LOX IMVI melanoma) was 0.537 µM. For the same compound, the TGI (LOX IMVI melanoma) was 6.04 µM, the GI50 (HL-60(TB) leukemia) was 0.823 µM and the TGI (HL-60(TB) leukemia) was 7.07 µM. For the same compound, the GI50 (HCT-116 colon) was 0.437 µM and the TGI (HCT-116 colon) was 4.57 µM.
Compound `COc1cc(CNCCCCCCN2C(=O)c3cccc4cccc(c34)C2=O)ccc1O` has a GI50 (RPMI-8226 leukemia) of 2.63 µM, a TGI (RPMI-8226 leukemia) of 7.19 µM and a GI50 (SNB-19 CNS) of 13.6 µM. For the same compound, the TGI (SNB-19 CNS) was 28.5 µM, the GI50 (SNB-75 CNS) was 10.5 µM and the TGI (SNB-75 CNS) was 22.4 µM. For the same compound, the GI50 (SF-268 CNS) was 8.4 µM, the TGI (SF-268 CNS) was 24.8 µM and the GI50 (SF-539 CNS) was 1.82 µM. For the same compound, the TGI (SF-539 CNS) was 3.83 µM, the GI50 (CAKI-1 renal) was 8.44 µM and the TGI (CAKI-1 renal) was 26.9 µM. The GI50 (HT29 colon) was 2.62 µM, the TGI (HT29 colon) was 10.1 µM and the GI50 (LOX IMVI melanoma) was 1.86 µM. The TGI (LOX IMVI melanoma) was 3.68 µM, the GI50 (HL-60(TB) leukemia) was 3.33 µM and the TGI (HL-60(TB) leukemia) was 24.3 µM. It also gave a GI50 (HCT-116 colon) of 3.14 µM and a TGI (HCT-116 colon) of 11.2 µM.
Compound `CC(=O)Nc1ccc(C(=O)CCl)cc1` has a GI50 (RPMI-8226 leukemia) of 2.95 µM, a TGI (RPMI-8226 leukemia) of 10 µM and a GI50 (SNB-19 CNS) of 17.2 µM. The TGI (SNB-19 CNS) was 45.1 µM, the GI50 (SNB-75 CNS) was 3.46 µM and the TGI (SNB-75 CNS) was 16 µM. The GI50 (SF-268 CNS) was 13.9 µM, the TGI (SF-268 CNS) was 29.5 µM and the GI50 (SF-539 CNS) was 3.63 µM. It also gave a TGI (SF-539 CNS) of 14.7 µM, a GI50 (CAKI-1 renal) of 1.78 µM and a TGI (CAKI-1 renal) of 3.24 µM. The GI50 (HT29 colon) was 2.45 µM, the TGI (HT29 colon) was 5.04 µM and the GI50 (LOX IMVI melanoma) was 1.93 µM. It also gave a TGI (LOX IMVI melanoma) of 4.17 µM, a GI50 (HL-60(TB) leukemia) of 2.4 µM and a TGI (HL-60(TB) leukemia) of 5.86 µM. The GI50 (HCT-116 colon) was 2.2 µM and the TGI (HCT-116 colon) was 4.95 µM.
`COC(=O)NC1C(C)OC(OC2C/C=C(/C)C3C=CC4C(OC5CC(OC6CCC(OC7CC(O)C(OC8CCC(O)C(C)O8)C(C)O7)C(C)O6)C(OC(C)=O)C(C)O5)C(C)CC(C)C4C3(C)/C(O)=C3/C(=O)OC4(CC(C=O)=CC(O)C4/C=C\2C)C3=O)CC1(C)[N+](=O)[O-]` (centres undefined) was tested, and the GI50 (RPMI-8226 leukemia) was 0.225 µM, the TGI (RPMI-8226 leukemia) was 5.99 µM and 0.705 µM and the GI50 (SNB-19 CNS) was 0.0728 µM. For the same compound, the TGI (SNB-19 CNS) was 3.45 µM and 0.509 µM, the GI50 (SNB-75 CNS) was 1.06 µM and the TGI (SNB-75 CNS) was 5.14 µM and 3.27 µM. The GI50 (SF-268 CNS) was 0.105 µM, the TGI (SF-268 CNS) was 11.2 µM and 9.73 µM and the GI50 (SF-539 CNS) was 0.0287 µM. For the same compound, the GI50 (CAKI-1 renal) was 1.05 µM, the TGI (CAKI-1 renal) was 7.08 µM and 3.27 µM and the GI50 (HT29 colon) was 0.352 µM. The TGI (HT29 colon) was 2.61 µM and 12.8 µM, the GI50 (LOX IMVI melanoma) was 0.281 µM and the TGI (LOX IMVI melanoma) was 1.32 µM and 0.808 µM. The GI50 (HL-60(TB) leukemia) was 0.354 µM, the TGI (HL-60(TB) leukemia) was 4.43 µM and 2.53 µM and the GI50 (HCT-116 colon) was 0.146 µM. The TGI (HCT-116 colon) was 2.05 µM and 0.289 µM.
With `COc1cc2ccc3c4ccccc4cnc3c2cc1OC` the TGI (RPMI-8226 leukemia) was over 100 µM, the TGI (SNB-19 CNS) was over 100 µM and the TGI (SNB-75 CNS) was over 100 µM. The TGI (SF-268 CNS) was over 100 µM, the TGI (SF-539 CNS) was over 100 µM and the TGI (CAKI-1 renal) was over 100 µM. For the same compound, the TGI (HT29 colon) was over 100 µM, the TGI (LOX IMVI melanoma) was over 100 µM and the TGI (HL-60(TB) leukemia) was over 100 µM. For the same compound, the TGI (HCT-116 colon) was over 100 µM.
`Nc1ccc2n[se]nc2c1` was tested, and the TGI (RPMI-8226 leukemia) was over 100 µM, the TGI (SNB-19 CNS) was over 100 µM and the TGI (SNB-75 CNS) was over 100 µM. For the same compound, the TGI (SF-268 CNS) was over 100 µM, the TGI (SF-539 CNS) was over 100 µM and the TGI (CAKI-1 renal) was over 100 µM. For the same compound, the TGI (HT29 colon) was over 100 µM, the TGI (LOX IMVI melanoma) was over 100 µM and the TGI (HL-60(TB) leukemia) was over 100 µM. For the same compound, the TGI (HCT-116 colon) was over 100 µM.
With `CCOC(=O)c1c(-c2ccccc2)[n+](=O)c2cc(Cl)c(Cl)cc2n1[O-]` the GI50 (RPMI-8226 leukemia) was 0.285 µM, the TGI (RPMI-8226 leukemia) was 1.51 µM and the GI50 (SNB-19 CNS) was 17.7 µM. The TGI (SNB-19 CNS) was 35.1 µM, the GI50 (SNB-75 CNS) was 8.7 µM and the TGI (SNB-75 CNS) was 30.2 µM. The GI50 (SF-268 CNS) was 16.6 µM, the TGI (SF-268 CNS) was 33.9 µM and the GI50 (SF-539 CNS) was 15.5 µM. For the same compound, the TGI (SF-539 CNS) was 32 µM, the GI50 (CAKI-1 renal) was 1.64 µM and the TGI (CAKI-1 renal) was 3.2 µM. The GI50 (HT29 colon) was 12 µM, the TGI (HT29 colon) was 36.3 µM and the GI50 (LOX IMVI melanoma) was 1.56 µM. The TGI (LOX IMVI melanoma) was 2.91 µM, the GI50 (HL-60(TB) leukemia) was 2.68 µM and the TGI (HL-60(TB) leukemia) was over 100 µM. For the same compound, the GI50 (HCT-116 colon) was 2.57 µM and the TGI (HCT-116 colon) was 11.1 µM.
For `O=C1Nc2ccc(Cl)cc2/C1=C\c1c(-c2ccc(Cl)cc2)nc2sc(C3CC3)nn12`, the GI50 (RPMI-8226 leukemia) was 18.1 µM, the TGI (RPMI-8226 leukemia) was over 100 µM and the GI50 (SNB-19 CNS) was 3.59 µM. For the same compound, the TGI (SNB-19 CNS) was 16.7 µM, the GI50 (SNB-75 CNS) was 1.38 µM and the TGI (SNB-75 CNS) was 3.19 µM. It also gave a GI50 (SF-268 CNS) of 3.21 µM, a TGI (SF-268 CNS) of 12.9 µM and a GI50 (SF-539 CNS) of 1.88 µM. It also gave a TGI (SF-539 CNS) of 3.78 µM, a GI50 (CAKI-1 renal) of 1.43 µM and a TGI (CAKI-1 renal) of 11.1 µM. It also gave a GI50 (HT29 colon) of 5.61 µM, a TGI (HT29 colon) of 17.4 µM and a GI50 (LOX IMVI melanoma) of 3.15 µM. The TGI (LOX IMVI melanoma) was 10.7 µM, the GI50 (HL-60(TB) leukemia) was 40.8 µM and the TGI (HL-60(TB) leukemia) was over 100 µM. It also gave a GI50 (HCT-116 colon) of 3 µM and a TGI (HCT-116 colon) of 11.4 µM.
`CCOCC1(COCC)CCC(c2[nH]ncc2CN(C)CCNC)CC1` showed a GI50 (RPMI-8226 leukemia) of 19.8 µM, a TGI (RPMI-8226 leukemia) of over 100 µM and a GI50 (SNB-19 CNS) of over 100 µM. The TGI (SNB-19 CNS) was over 100 µM, the GI50 (SNB-75 CNS) was 41.4 µM and the TGI (SNB-75 CNS) was over 100 µM. The GI50 (SF-268 CNS) was over 100 µM, the TGI (SF-268 CNS) was over 100 µM and the GI50 (SF-539 CNS) was over 100 µM. It also gave a TGI (SF-539 CNS) of over 100 µM, a GI50 (CAKI-1 renal) of over 100 µM and a TGI (CAKI-1 renal) of over 100 µM. It also gave a GI50 (HT29 colon) of 33.3 µM, a TGI (HT29 colon) of over 100 µM and a GI50 (LOX IMVI melanoma) of over 100 µM. For the same compound, the TGI (LOX IMVI melanoma) was over 100 µM, the GI50 (HL-60(TB) leukemia) was over 100 µM and the TGI (HL-60(TB) leukemia) was over 100 µM. It also gave a GI50 (HCT-116 colon) of over 100 µM and a TGI (HCT-116 colon) of over 100 µM.
